Reference: US20230091908A1, “FLUORENE DERIVATIVE, METHOD FOR PRODUCING SAME, AND APPLICATION OF SAME” (Osaka Gas Chemicals Co., Ltd., priority 2019, published 2023)

Experiments:
[1] = 5% mass reduction temperature (TG-DTA); format: physicochemical
Method: (5% Mass Reduction Temperature)
The temperature, at which the mass of the sample is reduced by 5% by mass was measured using a Thermogravimeter-Differential Thermal Analyzer (TG-DTA) (manufactured by SII NanoTechnology Inc., “TG/DTA6200”) in an atmosphere of a nitrogen gas, at a heating rate (programming rate) of 10° C./min. The sample (cured product) was prepared as follows.
That is, 3 parts by mass of Irgacure 184 (manufactured by BASF Japan Ltd.) as a photopolymerization initiator was added to 100 parts by mass of the total amount of the acrylate compound (polymerization component) shown in Table 1 or 3 weighed in a brown bottle, and the mixture was heated to 120° C. for dissolution to obtain a curable composition. An UV irradiation (500 mJ/cm^2) was repeated 4 times on the obtained curable composition to prepare the cured product.

[2] = Solubility in various solvents; format: physicochemical; design: key to Solubility: A: Soluble; B: Some soluble, but turbid; C: Insoluble; settings: for Solubility: stirred at 50° C. for 30 minutes
Method: The sample 0.3 g was weighed in a sample bottle, the solvent was added by 0.7 g (condition 1: solid content of 30% by mass) or 1.0 g (condition 2: solid content of 23% by mass), and each of the obtained mixed solutions was stirred at a temperature of 50° C. for 30 minutes by using a bioshaker (manufactured by TAITEC CORPORATION, “BR-43FH”). Each of the mixed solutions after stirring was evaluated according to the following criteria. The used solvents were methyl ethyl ketone (MEK), methyl isobuthyl ketone (MIBK), ethyl acetate, propylene glycol monomethyl ether acetate (PGMEA), toluene, dimethylformamide (DMF), or cyclohexanone.
B: Some soluble, but turbid

Structure (SMILES)	5% mass reduction temperature ([1]; cured product of the compound (UV cured, Irgacure 184), nitrogen, 10° C./min) [°C]	Solubility ([2]; Cyclohexanone, solid content of 30% by mass)	Solubility ([2]; DMF, solid content of 30% by mass)	Solubility ([2]; Ethyl acetate, solid content of 30% by mass)	Solubility ([2]; MEK, solid content of 30% by mass)	Solubility ([2]; MIBK, solid content of 30% by mass)	Solubility ([2]; PGMEA, solid content of 23% by mass)	Solubility ([2]; PGMEA, solid content of 30% by mass)	Solubility ([2]; Toluene, solid content of 30% by mass)	Solubility in various solvents (summary in words) ([2]; summary of Table 2)	melting point [°C]	5% mass reduction temperature ([1]; compound as obtained) [°C]
C=CC(=O)OCCCC1(CCCOC(=O)C=C)c2cc(-c3ccc4ccccc4c3)ccc2-c2ccc(-c3ccc4ccccc4c3)cc21 [DNPOA, 9,9-bis(3-acryloyloxypropyl)-2,7-di(2-naphthyl)fluorene]	382	A	A	A	A	A	A	B	A	high solubility in various solvents	120	
COC(=O)CCC1(CCC(=O)OC)c2cc(-c3ccc4ccccc4c3)ccc2-c2ccc(-c3ccc4ccccc4c3)cc21 [DNFDP-m, 9,9-bis(2-methoxycarbonylethyl)-2,7-di(2-naphthyl)fluorene]												390
